Data set [1] deals with Cucumber (variety: SAGAMI HANPAKU). The experiment in a line: Phytotoxicity studied in Test Example 2. It counts as in vivo. To be noted: 500 ppm, foliage spray. As to the method: Cucumber (variety: SAGAMI HANPAKU) was cultivated in a plastic pot of 4 cm diameter. A diluted solution of an active compound of the prescribed concentration, prepared in a similar manner as in the above-mentioned Test Example 1, was sprayed to seedlings reached to cotyledon in an amount of 6 ml per 3 pots. One day after the spraying, a suspension of spores, prepared by washing spores of Sphaerotheca fuliginea taken from previously infected cucumber into distilled water, was inoculated to the plant to be treated by spraying (once) and infected in a green house. Seven days after the inoculation, the contraction rate per pot was classified and evaluated to obtain the controlling value (%). Phytotoxicity was also studied at the same time. This test is an average of the results of 1 section 3 pots.

Data set [2] has as its system nursery stock (variety: OREGON SUPER DELICIOUS) leaves. The experiment in a line: Phytotoxicity studied in Test Example 4. The following applies: 500 ppm, spray on detached leaves of nursery stock. It counts as in vivo. As to the method: A nursery stock (variety: OREGON SUPER DELICIOUS) was cultivated in a plastic pot of 30 cm diameter and its leaves, which had reached at perfect extension stage, were detached from the petiole, were cultivated under hydroponic condition by using a water-holding carrier. After that, a diluted solution of an active compound of the prescribed concentration, prepared in a similar manner as in the above-mentioned Test Example 1, was sprayed to the leaves in an amount of 6 ml per 3 leaves. One day after the spraying, a suspension of spores of artificially cultured Alternaria mali was inoculated to the leaves by spraying (once) and infected by transferring them into a moisturizing box and keeping at 20° C. Four days after the inoculation, the contraction rate per pot was classified and evaluated according to the following standard and the controlling value (%) was obtained. Phytotoxicity was also studied at the same time. This test is an average of the results of 1 section 3 leaves.

Data set [3] deals with Paddy rice (variety: KOSHIHIKARI). To be noted: in vivo.
A further data set deals with Tomato (variety: REGINA). The following applies: in vivo.

In the case of `COc1ncnc(N2CCCC2)c1Cc1cccc(F)c1`, the melting point lay in the range of 74 to 76 °C.

`CS(=O)(=O)c1nc(Cl)c(Cc2ccccc2)c(N2CCCC2)n1` yielded a melting point of 136 to 138 °C.

As to `CC(c1ccccc1)c1c(Cl)ncnc1N1CCCC1` (racemic) [Compound 1-6], the Phytotoxicity result in data set [1] is on record as “No phytotoxicity was observed”.

On to `Clc1ncnc(N2CCCC2)c1Cc1ccccc1` [Compound 1-5, 5-benzyl-4-chloro-6-pyrrolidin-1-yl-pyrimidine], for which the Phytotoxicity result (in data set [1]; in data set [2]; in data set [3]; in the data set on Tomato (variety: REGINA)) was “No phytotoxicity was observed” throughout.

Consider `CC1CCCN1c1ncnc(Cl)c1Cc1ccccc1` (stereo not shown) [Compound 1-11], for which the Phytotoxicity entry in data set [1] and in data set [3] was “No phytotoxicity was observed” throughout.

Take `CC1CCCN1c1ncnc(Cl)c1Cc1cccc(F)c1` (stereo not shown) [Compound 1-14]: the Phytotoxicity entry in data set [1], in data set [2] and in data set [3] was “No phytotoxicity was observed” in each case.

Regarding `CC1CCCN1c1ncnc(Cl)c1Cc1cccc(Cl)c1` (stereo not shown) [Compound 1-15], the Phytotoxicity result in data set [1] and in data set [3] was “No phytotoxicity was observed” throughout.

For the compound `CC1CCCN1c1ncnc(Cl)c1Cc1ccc(F)c(F)c1` (stereo not shown) [Compound 1-16], the Phytotoxicity result in data set [1] and in data set [3] was “No phytotoxicity was observed” throughout.

`CC1CCCN1c1ncnc(Cl)c1Cc1cc(F)cc(F)c1` (stereo not shown) [Compound 1-17]: the Phytotoxicity entry in data set [1] and in data set [3] was “No phytotoxicity was observed” throughout.

As to `OC[C@H]1CCCN1c1ncnc(Cl)c1Cc1ccccc1` [Compound 1-22], in data set [3], the Phytotoxicity entry is “No phytotoxicity was observed”.

As for `Clc1ncnc(N2CC=CC2)c1Cc1ccccc1` [Compound 1-33], the Phytotoxicity result in data set [2] and in data set [3] was “No phytotoxicity was observed” throughout.

In the case of `CC1C=CC(C)N1c1ncnc(Cl)c1Cc1ccccc1` (stereo not shown) [Compound 1-36], the Phytotoxicity entry in data set [2] and in data set [3] was “No phytotoxicity was observed” in each case.

In the case of `Clc1ncnc(N2CCSC2)c1Cc1ccccc1` [Compound 1-37], the Phytotoxicity result in data set [3] is given as “No phytotoxicity was observed”.

Consider `Clc1cccc(Cc2c(Cl)ncnc2N2CCSC2)c1` [Compound 1-41], for which the Phytotoxicity result in data set [2] is “No phytotoxicity was observed”.

On to `Clc1ncnc(N2CCC=N2)c1Cc1ccccc1` [Compound 1-42], for which, in data set [2], the Phytotoxicity entry is given as “No phytotoxicity was observed”.

For `Fc1ccccc1Cc1c(Cl)ncnc1N1CCCC1` [Compound 1-45], the Phytotoxicity result in data set [3] is “No phytotoxicity was observed”.

Regarding `Clc1ccccc1Cc1c(Cl)ncnc1N1CCCC1` [Compound 1-46], the Phytotoxicity result in data set [1] and in data set [2] was “No phytotoxicity was observed” each time.

Consider `Fc1cccc(Cc2c(Cl)ncnc2N2CCCC2)c1` [Compound 1-56, 4-Chloro-5-(3-fluorobenzyl)-6-pyrrolidin-1-yl-pyrimidine], for which the Phytotoxicity entry in data set [1], in data set [2] and in data set [3] was “No phytotoxicity was observed” throughout.

`Clc1cccc(Cc2c(Cl)ncnc2N2CCCC2)c1` [Compound 1-57]: the Phytotoxicity result in data set [1] and in data set [3] was “No phytotoxicity was observed” each time.

As for `Fc1ccc(Cc2c(Cl)ncnc2N2CCCC2)cc1` [Compound 1-68], the Phytotoxicity result in data set [1] and in data set [3] was “No phytotoxicity was observed” throughout.

`Fc1ccc(Cc2c(Cl)ncnc2N2CCCC2)cc1F` [Compound 1-86]: the Phytotoxicity result in data set [1] and in data set [3] was “No phytotoxicity was observed” each time.

For `Fc1cc(F)cc(Cc2c(Cl)ncnc2N2CCCC2)c1` [Compound 1-87], the Phytotoxicity result in data set [1] and in data set [3] was “No phytotoxicity was observed” each time.

On to `Fc1cccc(Cc2cncnc2N2CCCC2)c1` [Compound 1-102, 5-(3-fluorobenzyl)-4-pyrrolidin-1-yl-pyrimidine], for which the melting point fell in the range of 51 to 54 °C. Also, the Phytotoxicity entry in data set [2] is listed as “No phytotoxicity was observed”. Also, in data set [3], the Phytotoxicity result is “No phytotoxicity was observed”.

With `CC(C)(C)c1nc(Cl)c(Cc2ccccc2)c(N2CCCC2)n1` [Compound 1-121], the Phytotoxicity result in data set [2] is reported as “No phytotoxicity was observed”.

With `CSc1nc(Cl)c(Cc2ccccc2)c(N2CCCC2)n1` [Compound 1-165, 5-benzyl-4-chloro-2-methylthio-6-pyrrolidin-1-yl-pyrimidine], the melting point is 97 to 99 °C. The Phytotoxicity result in the data set with Tomato (variety: REGINA) was “No phytotoxicity was observed”.

On to `Clc1nc(-c2ccccn2)nc(N2CCCC2)c1Cc1ccccc1` [Compound 1-238], for which the Phytotoxicity entry (in data set [3]; in the data set on Tomato (variety: REGINA)) was “No phytotoxicity was observed” in each case.

For the compound `Clc1nc(-c2ccncc2)nc(N2CCCC2)c1Cc1ccccc1` [Compound 1-304], the Phytotoxicity result in data set [2] is “No phytotoxicity was observed”.

On to `Clc1nc(-c2cnccn2)nc(N2CCCC2)c1Cc1ccccc1` [Compound 1-311], for which, in data set [2], the Phytotoxicity result is “No phytotoxicity was observed”.

Consider `Clc1nc(-n2cncn2)nc(N2CCCC2)c1Cc1ccccc1` [Compound 1-435], for which, in data set [2], the Phytotoxicity entry is given as “No phytotoxicity was observed”.

Turning to `Cc1cc(C)n(-c2nc(C)nc(Cl)c2Cc2ccccc2)n1` [Compound 1-523], the Phytotoxicity entry in data set [2] is given as “No phytotoxicity was observed”.

Values taken from patent US20070167421A1, “Pyrimidine derivatives and use thereof as agricultural and horticultural fungicides” (priority 2004, published 2007).
